The target in the first assay is Pseudomonas aeruginosa LpxC enzyme (Pseudomonas aeruginosa (strain ATCC 15692 / DSM 22644 / CIP 104116 / JCM 14847 / LMG 12228 / 1C / PRS 101 / PAO1), UniProt P47205). Kind of assay: biochemical. Format: biochemical. Particulars: class symbols A/B/C by IC50; Table 3; read-out: Enzyme inhibitory activity (inhibitory activity on Pseudomonas aeruginosa LpxC enzyme). As to the method:
Test 1: Evaluation of the Inhibitory Activity on Pseudomonas aeruginosa LpxC Enzyme
An inhibition curve was constructed for each test compound by performing the aforementioned reaction at varying concentrations of the test compound. From this inhibition curve, the concentration of the test compound at which the formation of the reaction product was suppressed by 50% was determined as the IC50 of the test compound, which was an index for the inhibitory activity on Pseudomonas aeruginosa LpxC enzyme.
For `CCO/N=C/c1cc(C#Cc2ccc(C(=O)N(C)C(C(=O)NC)C(=O)NO)cc2)co1` (stereo not shown) [Compound 506, 2-[{[4-({5-[(E)-(ethoxyimino)methyl]furan-3-yl}ethynyl)phenyl]carbonyl}(methyl)amino]-N-hydroxy-N′-methylpropanediamide], the IC50 was less than 10 nM.
The same measure, in the same setting: the figure for `CCOC1CN(Cc2ccc(C#Cc3ccc(C(=O)N(C)C(C(=O)NC)C(=O)NO)cc3C)cc2)C1` (stereo not shown) [Compound 582, 2-[{[4-({4-[(3-ethoxyazetidin-1-yl)methyl]phenyl}ethynyl)-3-methylphenyl]carbonyl}(methyl)amino]-N-hydroxy-N′-methylpropanediamide] is less than 10 nM.

The assay is the same for the next values; noted with them: inhibitory activity on Pseudomonas aeruginosa LpxC enzyme, class symbols A/B/C; read-out: Enzyme inhibitory activity.
On to `O=C(NC(C(=O)NO)C(=O)NO)c1ccc(-c2ccccc2)cc1` [Compound 109, 2-[(biphenyl-4-ylcarbonyl)amino]-N,N′-dihydroxypropanediamide], for which the IC50 lay within 10 to 100 nM.
In the case of `O=C(NC(C(=O)NO)C(=O)NCC(=O)N1CCCC1)c1ccc(-c2ccc(OCCO)cc2)cc1` (stereo not shown) [Compound 141, N-hydroxy-2-({[4′-(2-hydroxyethoxy)biphenyl-4-yl]carbonyl}amino)-N′-[2-oxo-2-(pyrrolidin-1-yl)ethyl]propanediamide], the IC50 is less than 10 nM.
Consider `CNC(=O)C(NC(=O)c1ccc(C#Cc2ccc(NCCO)cc2)cc1)C(=O)NO` (stereo not shown) [Compound 115, N-hydroxy-2-{[4-({4-[(2-hydroxyethyl)amino]phenyl}ethynyl)benzoyl]amino}-N′-methylpropanediamide], for which the IC50 is less than 10 nM.
`CCNC(=O)C(C(=O)NO)N(C)C(=O)c1ccc(-c2ccccc2)cc1` (stereo not shown) [Compound 242, 2-[(biphenyl-4-ylcarbonyl)(methyl)amino]-N-ethyl-N′-hydroxypropanediamide]: the IC50 lay within 10 to 100 nM.
The same measure, in the same setting: the figure for `CNC(=O)C(C(=O)NO)N(C)C(=O)c1ccc(-c2ncccn2)cc1` (stereo not shown) [Compound 311, N-hydroxy-N′-methyl-2-(methyl {[4-(pyrimidin-2-yl)phenyl]carbonyl}amino)propanediamide] is more than 100 nM; for `CNC(=O)C(C(=O)NO)N(C)C(=O)c1ccc(C#Cc2ccn(C)c2)cc1` (stereo not shown) [Compound 424, N-hydroxy-N′-methyl-2-[methyl({4-[(1-methyl-1H-pyrrol-3-yl)ethynyl]phenyl}carbonyl)amino]propanediamide] it is 10 to 100 nM; for `CNC(=O)C(C(=O)NO)N(C)C(=O)c1ccc(-c2ccc(N(C)C)c(F)c2)cc1` (stereo not shown) [Compound 54, 2-[{[4′-(dimethylamino)-3′-fluorobiphenyl-4-yl]carbonyl}(methyl)amino]-N-hydroxy-N′-methylpropanediamide] it is 10 to 100 nM.
Take `CNC(=O)C(C(=O)NO)N(C)C(=O)c1ccc(-c2ccccc2)cc1F` (stereo not shown) [Compound 27, 2-{[(3-fluorobiphenyl-4-yl)carbonyl](methyl)amino}-N-hydroxy-N′-methylpropanediamide]: the IC50 fell in the range of 10 to 100 nM.
Same read-out and setting: for `CNC(=O)C(C(=O)NO)N(C)C(=O)c1ccc(-c2cc(C)ccn2)cc1` (stereo not shown) [Compound 452, N-hydroxy-N′-methyl-2-(methyl {[4-(4-methylpyridin-2-yl)phenyl]carbonyl}amino)propanediamide] the value was more than 100 nM; for `CNC(=O)C(C(=O)NO)N(C)C(=O)c1ccc(C#Cc2ccoc2)cc1` (stereo not shown) [Compound 461, 2-[{[4-(furan-3-ylethynyl)phenyl]carbonyl}(methyl)amino]-N-hydroxy-N′-methylpropanediamide], 10 to 100 nM; for `O=C(NC(C(=O)NO)C(=O)NCc1ccco1)c1ccc(-c2ccc(OCCO)cc2)cc1` (stereo not shown) [Compound 12, N-(furan-2-ylmethyl)-N′-hydroxy-2-({[4′-(2-hydroxyethoxy)biphenyl-4-yl]carbonyl}amino)propanediamide], less than 10 nM.
Still for that read-out and setting: the figure for `CNC(=O)C(C(=O)NO)N(C)C(=O)c1ccc(-c2cnccn2)cc1` (stereo not shown) [Compound 309, N-hydroxy-N′-methyl-2-(methyl {[4-(pyrazin-2-yl)phenyl]carbonyl}amino)propanediamide] is more than 100 nM.
The same measure, in the same setting: the figure for `CNC(=O)[C@@](C)(C(=O)NO)N(C)C(=O)c1ccc(C#Cc2ccc(CCN3CCCOCC3)cc2)cc1` [Compound 438, (2S)-N-hydroxy-N′,2-dimethyl-2-{methyl[4-({4-[2-(1,4-oxazepan-4-yl)ethyl]phenyl}ethynyl)benzoyl]amino}propanediamide] is less than 10 nM; for `CNC(=O)C(C(=O)NO)N(C)C(=O)c1ccc(-c2cc(F)c(NC)c(F)c2)cc1` (stereo not shown) [Compound 69, 2-[{[3′,5′-difluoro-4′-(methylamino)biphenyl-4-yl]carbonyl}(methyl)amino]-N-hydroxy-N′-methylpropanediamide] it is less than 10 nM.
Turning to `CNC(=O)C(C(=O)NO)N(C)C(=O)c1ccc(-c2cccc(C)c2)cc1` (stereo not shown) [Compound 29, N-hydroxy-N′-methyl-2-{methyl[(3′-methylbiphenyl-4-yl)carbonyl]amino}propanediamide], the IC50 is less than 10 nM.
As for `CNC(=O)C(C(=O)NO)N(C)C(=O)c1ccc(-c2ccc(CCCO)cc2)cc1O` (stereo not shown) [Compound 185, N-hydroxy-2-[{[3-hydroxy-4′-(3-hydroxypropyl)biphenyl-4-yl]carbonyl}(methyl)amino]-N′-methylpropanediamide], the IC50 is more than 100 nM.
In the case of `NC(=O)C(NC(=O)c1ccc(-c2ccccc2)cc1)C(=O)NO` (stereo not shown) [Compound 111, 2-[(biphenyl-4-ylcarbonyl)amino]-N-hydroxypropanediamide], the IC50 lay within 10 to 100 nM.
On the same count and under the same terms, for `CNC(=O)C(C(=O)NO)N(C)C(=O)c1ccc(-c2ccc3c(ccn3C)c2)cc1` (stereo not shown) [Compound 19, N-hydroxy-N′-methyl-2-{methyl[4-(1-methyl-1H-indol-5-yl)benzoyl]amino}propanediamide] the value was less than 10 nM; for `CNC(=O)C(C(=O)NO)N(C)C(=O)c1ccc(-c2ccc3c(ccn3CCCCO)c2)cc1` (stereo not shown) [Compound 26, N-hydroxy-2-[{4-[1-(4-hydroxybutyl)-1H-indol-5-yl]benzoyl}(methyl)amino]-N′-methylpropanediamide], less than 10 nM.
As to `CCC(F)(F)c1ccc(-c2ccc(C(=O)N(C)C(C(=O)NC)C(=O)NO)cc2)cc1` (stereo not shown) [Compound 251, 2-[{[4′-(1,1-difluoropropyl)biphenyl-4-yl]carbonyl}(methyl)amino]-N-hydroxy-N′-methylpropanediamide], the IC50 is less than 10 nM.
Still for that read-out and setting: for `Cn1ccc(CNC(=O)C(NC(=O)c2ccc(-c3ccc(OCCO)cc3)cc2)C(=O)NO)n1` (stereo not shown) [Compound 140, N-hydroxy-2-({[4′-(2-hydroxyethoxy)biphenyl-4-yl]carbonyl}amino)-N′-[(1-methyl-1H-pyrazol-3-yl)methyl]propanediamide] the value was less than 10 nM; for `CNC(=O)C(C(=O)NO)N(C)C(=O)c1ccc(-c2ccc(F)c(Cl)c2)cc1` (stereo not shown) [Compound 223, 2-{[(3′-chloro-4′-fluorobiphenyl-4-yl)carbonyl](methyl)amino}-N-hydroxy-N′-methylpropanediamide], less than 10 nM; for `CNC(=O)C(C(=O)NO)N(C)C(=O)c1ccc(-c2ccc(OCc3ccc(C(=O)O)cc3)cc2)cc1` (stereo not shown) [Compound 98, 4-{[(4′-{[1-(hydroxyamino)-3-(methylamino)-1,3-dioxopropan-2-yl](methyl)carbamoyl}biphenyl-4-yl)oxy]methyl}benzoate], 10 to 100 nM.

(Values after US9073821B2, “Hydroxamic acid derivative” (priority 2010, dated 2015).)
